In patent US20230331817A1 (The Regents of the University of California, priority 2020, published 2023):
Where two headings read alike, the source gives them in different places. One block for each compound: values may come before it.

Key:
HUVEC = format: cell-based, human
Method: (§1) Resazurin reduction assay (Fisher Scientific) was used to evaluate the potential cytotoxicity of antifibrinolytic agents toward primary human endothelial cells and skin fibroblasts. Phosphate buffer that was used to dissolve the samples was included as negative control. The assay is based on reduction of the non-fluorescent dye resazurin, to the highly fluorescent resorufin by viable cells. […] Briefly, cells in 96-well cell culture plates were treated with different concentrations of antifibrinolytic compounds (as described above). After 24 hours resazurin reagent was added to each well and the plates were incubated at 37° C. for 4 hours. Fluorescence was measured by the FLUOstar Omega Microplate Reader (BMG Labtech) using an excitation wavelength of 544 nm and an emission wavelength of 590 nm. Each assay was done in duplicate, with three replicates each. The viability was evaluated based on comparison with untreated cells.

[1] = tested on: primary human dermal skin fibroblasts; assay: Resazurin reduction (alamarBlue) viability assay, skin fibroblasts; format: cell-based
Method: as §1

[2] = tested on: primary human dermal skin fibroblasts; assay: Caspase 3/7 assay, skin fibroblasts; format: cell-based; conditions: 24 hours; 30 μM KD1TM, 30 μM BPTI, 60 mM EACA, 30 mM TXA
Method: The influence of antifibrinolytic agents on apoptosis in cells was detected using the Caspase-Glo 3/7 Assay kit (Promega). Caspase 3 and 7 are activated in cells that undergo apoptosis. The assay provides a luminogenic substrate for caspase 3 and 7. Enzymatic activity leads to luminescence, which is proportional to the amount of caspase activity present. Cells were seeded in 96-well plates and treated with antifibrinolytic agents or phosphate buffer (solvent control). Taxol was included as positive control. After 24 hours of treatment, caspase reagent was added to each well, mixed and incubated for 1 hour at room temperature. Luminescence was measured using the FLUOstar Omega Microplate Reader (BMG Labtech).

[3] = humans; cited from earlier work
[4] = rats and dogs; cited from earlier work
Plasma kallikrein (pKLK) = target: T1, Plasma kallikrein (pKLK) (Homo sapiens, UniProt P03952); assay: Protease inhibition assay, plasma kallikrein; format: biochemical
T1 construct: Plasma kallikrein (pKLK) was from Enzyme Research Laboratories; purchased Enzyme Research Laboratories (South Bend, IN)
Method: (§2) All reactions were carried out in TBS, pH 7.5 (50 mM Tris-HCL, pH 7.5, containing 100 mM NaCl), containing 0.1 mg bovine serum albumin/ml (TBS/BSA) and 2 mM Ca2+(TBS/BSA/Ca2+, pH 7.5). […] The inhibition constant, K* was determined using the nonlinear regression data analysis program Grafit.
(§3) Ki values were obtained by correcting for the effect of substrate according to Beith (38), using equation 2, where (S) is substrate concentration and KM is specific for each enzyme.

DIP-δplasmin = assay: Surface plasmon resonance binding to DIP-δplasmin
Method: Active-site blocked δplasmin was generated by treating δplasmin with equal volumes of 1 M Tris-HCl, pH 8.0 and 1 M DFP (final concentration of 1 mM DFP) at room temperature for 20 minutes, followed by an incubation on ice for several hours. Additional equal volumes of 1M Tris-HCl, pH 8.0 and 1M DFP (final concentration of 2 mM) were added and the reaction was incubated at room temperature for 20 minutes and then over night at 4° C. The DFP inhibited Splamsin (DIP-δplasmin) was dialyzed against 20 mM HEPES pH 7.5, containing 150 mM NaCl and assayed for residual activity using S-2251 synthetic substrate hydrolysis. Based upon the residual activity, >99% of the δplasmin was inactivated.
(§4) Binding studies were performed on a Biacore T100 flow biosensor (Biacore, Uppsala, Sweden) at 25° C. DIP-δplasmin (˜98% purity using SDS-PAGE) or tPA (>98% purity using SDS-PAGE) was immobilized on carboxymethyl-dextran flow cell (CM5 sensor chips, GE Healthcare) using amine-coupling chemistry. Flow cell surfaces were activated with a mixture of 1-ethyl-3-(3-dimethylaminopropyl) carbodiimide and N-hydroxysulfosuccinimide for 5 min (flow rate 10 μl/min), after which the protein (20 μg/ml in 10 mM sodium acetate, pH 5.5) was injected onto the surface. Unreacted sites were blocked for 5 minutes with 1 M ethanolamine. The analyte KD1-Y11T/L17R-KT (100 to 2000 nM) was perfused through flow cells in HBS-P buffer (20 mM HEPES, pH 7.4, 100 mM NaCl, 0.005% (v/v) P20) at 10 μl/minutes for 6 minutes. After changing to HBS-P buffer without the protein, analyte dissociation was monitored for 10 min. Flow cells were regenerated with HBS-P containing 20 mM EACA. Data were corrected for nonspecific binding by subtracting signals obtained with the analyte infused through a flow cell without the coupled protein. Binding was analyzed with BIAevaluation software (Biacore) using a 1:1 binding model. Kd values were calculated from the quotient of the derived dissociation (kd) and association (ka) rate constants.

[5] = tested on: tPA-induced plasma clot fibrinolysis; assay: Fibrinolysis (clot lysis) assay in normal pooled plasma; format: biochemical; conditions: human NPP
Method: The method of Sperzel and Huetter (40) was followed with minor modifications as outlined earlier (32,41). Briefly, IIa was used to initiate fibrin formation in NPP and the lysis of the formed clot (fibrinolysis) was induced by simultaneous addition of tPA. Clot formation and lysis were monitored with a Molecular Devices microplate reader (SPECTRAmax 190) measuring the optical density at 405 nm. […] Two hundred twenty-five μL of this mixture was then added to 25 μL IIa and tPA in TBS/BSA containing 25 mM CaCl2). In the 250 μL final volume, concentration of IIa was 0.15 μg/ml and that of tPA was 1 μg/ml. Under control conditions (zero tPA and zero test compound), OD405 increased immediately indicating clotting followed by an extremely slow decrease representing fibrinolysis. As clotting was almost complete after 5 minutes, fibrinolysis induced by tPA was evaluated as a relative decrease of OD405 up to 60 minutes.
Addition of thrombin (IIa) to human normal pooled plasma (NPP) caused fibrin formation, which is reflected by the increase in OD405 (black curve, FIGS. 3A and 3B). Simultaneous addition of tPA caused initial clot formation followed by dissolution of fibrin induced by tPA-mediated conversion of plasminogen to plasmin (black curve with closed circles, FIGS. 3A and 3B); the midpoint of fibrinolysis was ˜8 min in each case. Both antifibrinolytic agents inhibited fibrinolysis in a dose-dependent manner.

[6] = tested on: tPA-induced lysis of clot formed in whole blood; assay: Thromboelastography, tPA-induced clot lysis in whole blood; format: biochemical
Method: The effect of different concentrations of KD1-Y11T/R15K/L17R-KCOOH (KD1TM) on fibrinolysis was evaluated with thromboelastography (TEG) using a TEG 5000 Thrombelastograph (Haemonetics Corp, Braintree, MA, USA). Each clot formation/lysis assay contained 300 μL of citrated whole blood, thrombin (0.15 μM, final concentration), tPA (2 nM, final concentration), CaCl2) (10 mM, final concentration) and various concentrations of KD1TM in TBS/BSA (50 mM Tris-HCl, 100 mM NaCl, containing 0.1 mg bovine serum albumin/mL) to make the final volume to 360 μL. Thrombin, tPA and CaCl2) were added last to initiate simultaneous clotting and fibrinolysis. […] Each experiment was performed at least 60 min after the maximal amplitude was reached to establish the LY60 value. TEG Analytical Software (version 4.2.3; Haemonetics Corporation, Braintree, MA, USA) was used to calculate the time to clot initiation (R), maximal clot strength (maximal amplitude (MA), which was directly related to the shear elastic modulus strength, G), and percent lysis 60 min after MA (LY60).

human plasmin = target: T2, human plasmin (Homo sapiens, UniProt P00747); assay: Stability study: plasmin inhibition after storage; format: biochemical; conditions: 0.59 mg/ml kept at 4° C., room temperature and 37° C. for a week
T2 construct: purchased Hematologic Technologies Inc (Essex Junction, VT)
Method: In stability studies, the KD1Y11T/R15K/L17R-KT sample (0.59 mg/ml) was kept at 4° C., at room temperature and at 37° C. for a week and its plasmin inhibition was studied each day. […] Reactions were carried out in TBS/BSA and 2 mM calcium. Human plasmin was incubated with various concentrations of rHuKD1-TM for 1 hour at room temperature in a 96-well microtiter plate. Synthetic substrate for plasmin was then added to a final concentration of 1 KM, and residual amidolytic activity was measured in a kinetic microplate reader (Molecular Devices). In Table 7 below, the apparent inhibition constant, Ki* was determined using the nonlinear regression data analysis program. Data are analyzed using an equation for a tight-binding inhibitor and Ki values are obtained by correcting for the effect of substrate concentration.

human FXIa = target: T3, human FXIa (Homo sapiens, UniProt P03951); assay: Protease inhibition assay, factor XIa; format: biochemical; conditions: up to 3 μM inhibitor; 1 nM FXIa; triplicate
T3 construct: Purified human FXIa, thrombin (IIa) and plasmin were purchased; purchased Hematologic Technologies Inc (Essex Junction, VT)
Method: as §2, §3

FVIIa/sTF = target: T4, FVIIa/sTF (Homo sapiens, UniProt P08709); assay: Protease inhibition assay, FVIIa/soluble tissue factor; format: biochemical; conditions: up to 3 μM inhibitor; 20 nM FVIIa/sTF; triplicate
T4 construct: human factor VIIa (FVIIa) was prepared as described previously (34)
Method: as §2, §3

tPA = target: T5, tPA (Homo sapiens, UniProt P00750); assay: Surface plasmon resonance binding to tPA; conditions: 25° C; 1:1 binding model
T5 construct: purchased Genentech (South San Francisco, CA)
Method: as §4

[7] = tested on: plasmin induced lysis of clot formed in whole blood; assay: Thromboelastography, plasmin induced clot lysis in whole blood; format: biochemical, human
Method: Plasmin and CaCl2) were added last to initiate simultaneous clotting and fibrinolysis. […] The thromboelastograph was calibrated each day and each inhibitor concentration was tested in duplicate. TEG Analytical Software (version 4.2.2; Haemonetics Corporation, Braintree, MA) was used to calculate the time to clot initiation (R), maximal clot strength (maximal amplitude (MA), which was directly related to the shear elastic modulus strength, G), and percent lysis 60 minutes after MA (LY60) (42).

mouse injury models = conditions: liver laceration model and tail amputation model; cited from earlier work
[8] = NHB + […] plasmin, inhibitor 5 μM

T5 sequence (P00750 36-562): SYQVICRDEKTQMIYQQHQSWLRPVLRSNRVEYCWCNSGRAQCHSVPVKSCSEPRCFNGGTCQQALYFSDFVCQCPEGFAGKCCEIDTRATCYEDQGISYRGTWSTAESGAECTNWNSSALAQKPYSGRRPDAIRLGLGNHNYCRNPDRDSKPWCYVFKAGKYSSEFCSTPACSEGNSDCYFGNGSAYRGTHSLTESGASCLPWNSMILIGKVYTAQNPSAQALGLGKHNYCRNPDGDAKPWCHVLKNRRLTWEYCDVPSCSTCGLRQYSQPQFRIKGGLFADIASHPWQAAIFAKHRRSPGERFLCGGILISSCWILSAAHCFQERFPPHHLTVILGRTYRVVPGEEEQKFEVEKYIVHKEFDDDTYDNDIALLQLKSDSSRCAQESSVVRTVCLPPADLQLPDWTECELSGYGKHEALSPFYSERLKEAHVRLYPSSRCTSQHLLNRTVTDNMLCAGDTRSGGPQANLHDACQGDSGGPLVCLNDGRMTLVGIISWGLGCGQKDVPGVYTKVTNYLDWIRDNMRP
T1 sequence (P03952 20-390 limits assumed): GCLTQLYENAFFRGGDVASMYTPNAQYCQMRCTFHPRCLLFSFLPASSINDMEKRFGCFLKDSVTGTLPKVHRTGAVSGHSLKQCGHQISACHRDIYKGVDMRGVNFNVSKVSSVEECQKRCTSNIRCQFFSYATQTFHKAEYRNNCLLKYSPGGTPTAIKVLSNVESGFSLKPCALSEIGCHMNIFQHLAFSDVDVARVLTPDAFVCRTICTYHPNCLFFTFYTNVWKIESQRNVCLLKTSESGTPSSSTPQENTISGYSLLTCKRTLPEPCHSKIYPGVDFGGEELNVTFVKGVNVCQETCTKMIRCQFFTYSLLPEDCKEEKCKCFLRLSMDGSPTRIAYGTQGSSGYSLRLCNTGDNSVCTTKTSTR
T1 sequence (P03952 391-638 limits assumed): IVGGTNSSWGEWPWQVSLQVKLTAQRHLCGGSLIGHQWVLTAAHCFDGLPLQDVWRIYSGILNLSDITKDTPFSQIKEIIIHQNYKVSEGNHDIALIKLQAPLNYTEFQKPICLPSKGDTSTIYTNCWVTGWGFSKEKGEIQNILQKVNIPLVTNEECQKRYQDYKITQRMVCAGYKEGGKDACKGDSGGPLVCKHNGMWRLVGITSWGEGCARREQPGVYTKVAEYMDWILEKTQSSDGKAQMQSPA
T2 sequence (P00747 97-580 limits assumed): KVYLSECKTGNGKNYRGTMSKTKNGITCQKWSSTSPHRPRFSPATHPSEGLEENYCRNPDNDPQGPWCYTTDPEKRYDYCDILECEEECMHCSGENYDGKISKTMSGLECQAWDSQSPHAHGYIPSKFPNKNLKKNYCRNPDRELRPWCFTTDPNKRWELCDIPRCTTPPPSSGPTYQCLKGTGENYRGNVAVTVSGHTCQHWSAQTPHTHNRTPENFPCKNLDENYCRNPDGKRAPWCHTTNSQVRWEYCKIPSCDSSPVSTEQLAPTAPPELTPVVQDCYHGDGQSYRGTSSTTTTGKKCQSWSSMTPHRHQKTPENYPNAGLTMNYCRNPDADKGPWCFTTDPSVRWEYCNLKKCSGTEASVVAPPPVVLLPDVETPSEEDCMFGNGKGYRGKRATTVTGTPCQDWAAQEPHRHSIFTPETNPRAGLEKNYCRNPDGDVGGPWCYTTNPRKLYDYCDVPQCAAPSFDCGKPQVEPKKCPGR
T2 sequence (P00747 581-810 limits assumed): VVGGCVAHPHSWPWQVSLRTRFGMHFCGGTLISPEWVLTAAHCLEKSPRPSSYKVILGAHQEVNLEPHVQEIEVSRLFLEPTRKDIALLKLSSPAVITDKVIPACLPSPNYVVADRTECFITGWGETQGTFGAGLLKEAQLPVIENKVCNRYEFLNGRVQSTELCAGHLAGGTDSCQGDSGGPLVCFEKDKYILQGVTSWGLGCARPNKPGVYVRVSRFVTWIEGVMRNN
T3 sequence (P03951 19-387 limits assumed): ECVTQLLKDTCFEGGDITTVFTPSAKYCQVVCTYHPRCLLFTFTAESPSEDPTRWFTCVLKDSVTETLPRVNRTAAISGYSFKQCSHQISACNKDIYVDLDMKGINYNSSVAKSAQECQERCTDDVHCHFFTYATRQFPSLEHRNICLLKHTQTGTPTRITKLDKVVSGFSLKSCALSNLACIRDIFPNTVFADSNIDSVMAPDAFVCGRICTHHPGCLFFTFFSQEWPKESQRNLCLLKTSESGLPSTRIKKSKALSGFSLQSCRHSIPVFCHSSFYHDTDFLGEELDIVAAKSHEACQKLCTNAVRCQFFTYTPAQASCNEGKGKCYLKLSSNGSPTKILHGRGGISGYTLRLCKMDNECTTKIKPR
T3 sequence (P03951 388-625 limits assumed): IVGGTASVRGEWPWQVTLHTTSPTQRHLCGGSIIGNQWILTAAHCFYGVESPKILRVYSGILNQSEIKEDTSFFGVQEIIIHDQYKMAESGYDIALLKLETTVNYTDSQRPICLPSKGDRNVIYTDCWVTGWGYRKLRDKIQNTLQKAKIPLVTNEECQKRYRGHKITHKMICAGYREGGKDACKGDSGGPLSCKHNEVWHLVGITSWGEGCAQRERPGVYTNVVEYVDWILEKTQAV
T4 sequence (P08709 213-466 limits assumed): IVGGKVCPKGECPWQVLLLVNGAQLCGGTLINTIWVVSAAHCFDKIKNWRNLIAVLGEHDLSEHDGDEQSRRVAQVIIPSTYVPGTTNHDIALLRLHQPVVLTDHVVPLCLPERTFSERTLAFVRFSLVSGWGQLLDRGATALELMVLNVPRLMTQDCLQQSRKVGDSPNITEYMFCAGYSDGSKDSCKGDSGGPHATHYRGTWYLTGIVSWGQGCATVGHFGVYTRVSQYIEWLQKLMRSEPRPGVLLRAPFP
T4 sequence (P08709 61-212 limits assumed): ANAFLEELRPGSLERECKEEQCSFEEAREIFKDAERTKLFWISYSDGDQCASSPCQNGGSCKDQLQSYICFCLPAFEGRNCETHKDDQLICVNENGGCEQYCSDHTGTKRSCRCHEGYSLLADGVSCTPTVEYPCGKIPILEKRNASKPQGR
T4 sequence (P13726 33-251 partner limits assumed): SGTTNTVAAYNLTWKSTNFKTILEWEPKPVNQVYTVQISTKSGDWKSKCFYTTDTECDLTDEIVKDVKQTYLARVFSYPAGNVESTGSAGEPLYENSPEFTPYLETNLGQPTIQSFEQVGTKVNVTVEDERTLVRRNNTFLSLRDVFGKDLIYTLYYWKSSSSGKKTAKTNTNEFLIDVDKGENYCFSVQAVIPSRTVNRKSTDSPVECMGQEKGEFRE

Compound: NC[C@H]1CC[C@H](C(=O)O)CC1 [TXA, tranexamic acid]
- HUVEC viability (FIG. 4) (HUVEC): not significantly different from the untreated cells
- Cell viability, primary human skin fibroblasts (Example 1) ([1]; 24 hours, KD1-Y11T/L17R-KT and aprotinin 0.1 μM-30 μM, EACA 1-60 mM, TXA 0.2-30 mM): equally unchanged
- Fibroblast cell viability (FIG. 5) ([1]; 24 hours, indicated concentrations, p>0.05): not significantly different from the untreated cells
- Apoptosis, caspase-3/7 activity, skin fibroblasts (FIG. 6) [2]: not in fibroblasts
- half-life [3]: ~2 h
- plasma half-life [4]: ~2 h

- Concentration until which kallikrein inhibition is not observed (Plasma kallikrein (pKLK)): 25 µM
- Kd (DIP-δplasmin; read-out: Affinity of binding to the plasmin kringle domain): ~40 nM
Compound: KD1Y11T/R15K/L17R-KT: 60-residue triple mutant of Kunitz domain1 of human TFPI-2, SEQ ID NO: 1, C-terminal IEK, expressed in Pichia (NAEICLLPLDTGPCKARLLRYYYDRYTQSCRQFLYGGCEGNANNFYTWEACDDACWRIEK)
- Fibrinolysis midpoint (Example 2) ([5]; 0.5 μM inhibitor + tPA, ˜8 min without inhibitor): ~15 min
- Effect on tPA induced fibrinolysis (Example 2) ([5]; 3 μM inhibitor + tPA): completely prevented tPA induced fibrinolysis
- Effect on clot formation or fibrinolysis in the absence of tPA (Example 2) ([5]; 3 μM inhibitor, no tPA): had no effect on clot formation or fibrinolysis
- G ([6]; 2 nM tPA + 2 μM KD1TM, […] thrombin): 3525.4 dyn/cm^2
- MA ([6]; 2 nM tPA + 4 μM KD1TM, […] thrombin): 44.2 mm
- Clot strength MA restored, relative to blood without tPA ([6]; 2 nM tPA, 4 μM KD1TM): 98%
- G restored, relative to blood without tPA ([6]; 2 nM tPA, 4 μM KD1TM): 96%
- Stability of plasmin inhibition on storage (human plasmin): plasmin inhibitory properties are not altered
- HUVEC viability (FIG. 4) (HUVEC): not significantly different from the untreated cells
- Fibroblast cell viability (FIG. 5) [1]: not significantly different from the untreated cells

- Inhibition profile with pKLK (Plasma kallikrein (pKLK); up to 3 μM inhibitor, 1 nM pKLK, triplicate): No inhibition was observed
- Inhibition profile with FXIa (human FXIa): No inhibition was observed
- Inhibition profile with FVIIa/sTF (FVIIa/sTF): No inhibition was observed
- koff, DIP-δplasmin (DIP-δplasmin; 25° C, 1:1 binding model): 7.13±0.9×10^−5 s^−1
- kon, DIP-δplasmin (DIP-δplasmin; 25° C, 1:1 binding model): 1.49±0.3×10^3 M^−1s^−1
- Kd (DIP-δplasmin; 25° C, 1:1 binding model, read-out: Kd, DIP-δplasmin (kringle domain of plasminogen/plasmin)): ~50 nM
- Kd (tPA): ~35 nM
- koff, tPA (tPA): 1.05±0.7×10^−4 s^−1
- kon, tPA (tPA): 2.91±0.4×10^3 M^−1s^−1
Compound: KD1-Y11T/L17R-KT: 60-residue double mutant (Y11T/L17R) of Kunitz domain1 of human TFPI-2 with C-terminal IEK (NAEICLLPLDTGPCRARLLRYYYDRYTQSCRQFLYGGCEGNANNFYTWEACDDACWRIEK)
- Max OD405 ([5]; 0.5 μM inhibitor + tPA): 1.54 ± 0.14
- OD405 at 60 min ([5]; 0.5 μM inhibitor + tPA): 0.85 ± 0.13
- Fibrinolysis midpoint time ([5]; 1.0 μM inhibitor + tPA): 27 ± 1.1 min
- Max OD405 ([5]; 1.0 μM inhibitor + tPA): 1.54 ± 0.11
- OD405 at 60 min ([5]; 1.0 μM inhibitor + tPA): 0.84 ± 0.12
- Fibrinolysis midpoint time ([5]; 2.0 μM inhibitor + tPA): >60 min
- Max OD405 ([5]; 2.0 μM inhibitor + tPA): 1.58 ± 0.09
- OD405 at 60 min ([5]; 2.0 μM inhibitor + tPA): 1.35 ± 0.06
- Fibrinolysis midpoint time ([5]; 3.0 μM inhibitor + tPA): >60 min
- Max OD405 ([5]; 3.0 μM inhibitor + tPA): 1.71 ± 0.10
- OD405 at 60 min ([5]; 3.0 μM inhibitor + tPA): 1.57 ± 0.08
- OD405 at 60 min ([5]; […] inhibitor + tPA): 0.86 ± 0.15
- G [7, 8]: ~3004 dyn/cm^2
- LY60 [7, 8]: ~12%
- Clot strength MA restored, relative to blood without plasmin ([7]; […] plasmin, inhibitor 5 μM): ~80%
- G restored, relative to blood without plasmin ([7]; […] plasmin, inhibitor 5 μM): ~65%
- G restored, relative to blood without plasmin ([7]; […] plasmin, inhibitor 7.5 μM): ~70%
- MA restored, relative to blood without plasmin ([7]; […] plasmin, inhibitor 7.5 μM): ~83%
- Prevention of blood loss (mouse injury models): successful in preventing blood loss
